5 molecules from paper PMC8586496 (International Journal for Parasitology: Drugs and Drug …, 2021) can be followed below.

The target of one assay is T1, Tca-Pgp-11.1 (Toxocara canis, UniProt A0A891XKB7).
T1 sequence (A0A891XKB7 1-1282): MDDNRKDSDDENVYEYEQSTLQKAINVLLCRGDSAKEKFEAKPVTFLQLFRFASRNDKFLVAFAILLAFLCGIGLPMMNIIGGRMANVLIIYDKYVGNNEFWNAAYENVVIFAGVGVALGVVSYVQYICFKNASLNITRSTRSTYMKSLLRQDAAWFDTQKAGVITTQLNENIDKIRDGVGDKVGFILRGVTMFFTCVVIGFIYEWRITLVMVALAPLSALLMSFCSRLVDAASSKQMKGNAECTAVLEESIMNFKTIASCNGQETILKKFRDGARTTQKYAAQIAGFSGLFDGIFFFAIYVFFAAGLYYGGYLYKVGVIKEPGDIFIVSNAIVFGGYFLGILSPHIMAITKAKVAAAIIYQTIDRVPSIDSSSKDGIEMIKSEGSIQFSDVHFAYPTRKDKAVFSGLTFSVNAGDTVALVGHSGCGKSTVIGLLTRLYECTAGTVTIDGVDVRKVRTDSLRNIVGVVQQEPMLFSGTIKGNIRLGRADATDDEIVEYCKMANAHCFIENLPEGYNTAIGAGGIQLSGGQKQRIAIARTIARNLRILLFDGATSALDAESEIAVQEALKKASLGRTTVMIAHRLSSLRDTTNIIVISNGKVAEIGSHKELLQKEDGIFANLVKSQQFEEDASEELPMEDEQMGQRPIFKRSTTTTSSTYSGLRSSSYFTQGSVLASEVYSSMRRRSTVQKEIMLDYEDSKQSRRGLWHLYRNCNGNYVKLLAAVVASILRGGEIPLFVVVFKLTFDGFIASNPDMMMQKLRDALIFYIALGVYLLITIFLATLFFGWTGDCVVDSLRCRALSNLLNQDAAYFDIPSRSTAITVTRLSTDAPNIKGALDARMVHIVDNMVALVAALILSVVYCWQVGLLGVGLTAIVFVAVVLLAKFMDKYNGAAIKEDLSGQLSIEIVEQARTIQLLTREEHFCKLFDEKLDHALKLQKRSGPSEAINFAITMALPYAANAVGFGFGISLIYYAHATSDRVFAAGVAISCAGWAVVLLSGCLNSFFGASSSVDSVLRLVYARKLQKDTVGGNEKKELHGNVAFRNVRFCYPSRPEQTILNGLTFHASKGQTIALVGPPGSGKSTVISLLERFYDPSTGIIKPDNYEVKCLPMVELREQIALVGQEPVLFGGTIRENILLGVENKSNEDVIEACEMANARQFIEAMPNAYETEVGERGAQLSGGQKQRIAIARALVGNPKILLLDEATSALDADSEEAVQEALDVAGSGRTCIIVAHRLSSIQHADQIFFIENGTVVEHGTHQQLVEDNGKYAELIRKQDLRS
Put plainly: H33342 efflux inhibition assay. It counts as cell-based.

Assay [1] concerns non-transfected LLC-PK1 cells. It counts as cell-based, pig. The note with it: possibly P-gp-independent mechanism.

Where “and” joins values, the source holds several entries; their conditions need not be identical. Equal values may be shown once.

In turn, `CO[C@H]1C[C@H](O[C@@H]2/C(C)=C/C[C@@H]3C[C@@H](C[C@]4(CC[C@H](C)[C@@H](C5CCCCC5)O4)O3)OC(=O)[C@@H]3C=C(C)/C(=N/O)[C@H]4OC/C(=C\C=C\[C@@H]2C)[C@]43O)O[C@@H](C)[C@@H]1O` [Selamectin, selamectin] gave an IC50 at Tca-Pgp-11.1 of 1020 µM.
Regarding `COc1cc2c(cc1OC)CN(CCc1ccc(NC(=O)c3cc(OC)c(OC)cc3NC(=O)c3cnc4ccccc4c3)cc1)CC2` [Tariquidar, tariquidar], at Tca-Pgp-11.1, the IC50 is 68 µM and 68.5 µM.
On to `C/C=C/C[C@@H](C)C(=O)[C@H]1C(=O)N[C@@H](C(C)C)C(=O)N(C)CC(=O)N(C)[C@@H](CC(C)C)C(=O)N[C@@H](C(C)C)C(=O)N(C)[C@@H](CC(C)C)C(=O)N[C@@H](C)C(=O)N[C@H](C)C(=O)N(C)[C@@H](CC(C)C)C(=O)N(C)[C@@H](CC(C)C)C(=O)N(C)[C@@H](C(C)C)C(=O)N1C` [Valspodar, valspodar], for which it took 3.01 µM to reach half-maximal inhibition against Tca-Pgp-11.1 (IC50).
For `COC(=O)[C@H]1[C@H]2C[C@@H]3c4[nH]c5cc(OC)ccc5c4CCN3C[C@H]2C[C@@H](OC(=O)c2cc(OC)c(OC)c(OC)c2)[C@@H]1OC` [reserpine], the “Effect on release of H33342 from non-transfected cells” value in assay [1] is “enhanced release of H33342 from non-transfected cells”.
For `C=CC[C@@H]1/C=C(\C)C[C@H](C)C[C@H](OC)[C@H]2O[C@@](O)(C(=O)C(=O)N3CCCC[C@H]3C(=O)O[C@H](/C(C)=C/[C@@H]3CC[C@@H](O)[C@H](OC)C3)[C@H](C)[C@@H](O)CC1=O)[C@H](C)C[C@@H]2OC` [tacrolimus], the “Effect on release of H33342 from non-transfected cells” value in assay [1] is reported as “enhanced release of H33342 from non-transfected cells”.

The term IC50 denotes the midpoint of a concentration-inhibition curve.
